Measurements taken from patent US20150299188A1, “HETEROCYCLIC COMPOUND” (priority 2012, published 2015).

Tested on: FLAP (5-lipoxygenase activating protein)
Assay: In vitro binding test: displacement of [3H]-7-chloro-3-(5-((3-fluoropyridin-2-yl)methoxy)-2-methylphenyl)-3,4-dihydroquinazolin-2(1H)-one from Sf9 microsome fractions
Design: species or system human and mouse
Details: Sf9 microsome fractions expressing FLAP; 100% = radioligand binding with 10 μM sodium 3-(3-(tert-butylsulfanyl)-1-(4-chlorobenzyl)-5-isopropyl-1H-indol-2-yl)-2,2-dimethylpropanoate, 0% = DMSO; test compound concentration not given
Outline: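 Sf9 microsomes expressing human or mouse FLAP (2 μg/mL) preincubated with compound 10 min at room temperature, then 120 nM tritiated quinazolinone ligand added for 60 min; buffer 100 mM Tris-HCl pH 7.5 with NaCl, EDTA, DTT, glycerol, Tween20. Bound ligand filtered and counted by scintillation; 10 μM indole propanoate defines 100% inhibition, DMSO 0%.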

Compound	inhibitory rate (%)
COC(=O)c1ccc2c(c1)NC(=O)N(c1cc(OCc3nc(C)cs3)ccc1C)C2 [Example 249, methyl 3-(2-methyl-5-((4-methyl-1,3-thiazol-2-yl)methoxy)phenyl)-2-oxo-1,2,3,4-tetrahydroquinazoline-7-carboxylate]	90
Cc1ccc(OCc2ncccc2F)cc1N1Cc2nn(C)cc2NC1=O [Example 250, 6-(5-((3-fluoropyridin-2-yl)methoxy)-2-methylphenyl)-2-methyl-2,4,6,7-tetrahydro-5H-pyrazolo[4,3-d]pyrimidin-5-one]	70
O=C(O)CCCCc1ccc(OCc2ncccc2F)cc1N1Cc2ccccc2NC1=O [Example 251, 5-(4-((3-fluoropyridin-2-yl)methoxy)-2-(2-oxo-1,4-dihydroquinazolin-3(2H)-yl)phenyl)pentanoic acid]	68
Cc1ccc(S(=O)(=O)Oc2ccc3c(c2)NC(=O)N(c2cc(OCc4ncccc4F)ccc2C)C3)cc1 [Example 252, 3-(5-((3-fluoropyridin-2-yl)methoxy)-2-methylphenyl)-2-oxo-1,2,3,4-tetrahydroquinazolin-7-yl 4-methylbenzenesulfonate]	105
Cc1ccc(OCc2ncccc2F)cc1N1Cc2cccc(Cl)c2NC1=O [Example 253, 8-chloro-3-(5-((3-fluoropyridin-2-yl)methoxy)-2-methylphenyl)-3,4-dihydroquinazolin-2(1H)-one]	93
CC(C)(O)c1ccc2c(c1)NC(=O)N(c1cc(OCc3c(F)cccc3F)ccc1Cc1ccccc1)C2 [Example 254, 3-(2-benzyl-5-((2,6-difluorobenzyl)oxy)phenyl)-7-(2-hydroxypropan-2-yl)-3,4-dihydroquinazolin-2(1H)-one]	98
O=C1Nc2cc(CO)ccc2CN1c1cc(OCc2c(F)cccc2F)ccc1Cc1ccccc1 [Example 255, 3-(2-benzyl-5-((2,6-difluorobenzyl)oxy)phenyl)-7-(hydroxymethyl)-3,4-dihydroquinazolin-2(1H)-one]	81
Cc1ccc(OCc2ncccc2F)cc1N1Cc2cccnc2NC1=O [Example 256, 3-(5-((3-fluoropyridin-2-yl)methoxy)-2-methylphenyl)-3,4-dihydropyrido[2,3-d]pyrimidin-2(1H)-one]	85
O=C1Nc2cc(CO)ccc2CN1c1cc(OCc2c(F)cccc2F)ccc1CCc1ccccc1 [Example 257, 3-(5-((2,6-difluorobenzyl)oxy)-2-(2-phenylethyl)phenyl)-7-(hydroxymethyl)-3,4-dihydroquinazolin-2(1H)-one]	97
COc1ccc(CN2C(=O)N(c3cc(OCc4ncccc4F)ccc3Br)Cc3ccccc32)cc1 [Example 258, 3-(2-bromo-5-((3-fluoropyridin-2-yl)methoxy)phenyl)-1-(4-methoxybenzyl)-3,4-dihydroquinazolin-2(1H)-one]	116
Cc1ccc(OCc2ncccc2F)cc1N1Cc2ccncc2NC1=O [Example 259, 3-(5-((3-fluoropyridin-2-yl)methoxy)-2-methylphenyl)-3,4-dihydropyrido[3,4-d]pyrimidin-2(1H)-one]	92
CC(C)(O)c1ccc2c(c1)NC(=O)N(c1cc(OCc3c(F)cccc3F)ccc1CCc1ccccc1)C2 [Example 260, 3-(5-((2,6-difluorobenzyl)oxy)-2-(2-phenylethyl)phenyl)-7-(2-hydroxypropan-2-yl)-3,4-dihydroquinazolin-2(1H)-one]	106
Cc1ccc(OCc2ncccc2F)cc1N1Cc2ccc(C(=O)NC3CC3)cc2NC1=O [Example 261, N-cyclopropyl-3-(5-((3-fluoropyridin-2-yl)methoxy)-2-methylphenyl)-2-oxo-1,2,3,4-tetrahydroquinazoline-7-carboxamide]	116
Cc1ccc(OCc2ncccc2F)cc1N1Cc2nn(CC(F)(F)F)cc2NC1=O [Example 263, 6-(5-((3-fluoropyridin-2-yl)methoxy)-2-methylphenyl)-2-(2,2,2-trifluoroethyl)-2,4,6,7-tetrahydro-5H-pyrazolo[4,3-d]pyrimidin-5-one]	97
Cn1cc2c(n1)CN(c1cc(OCc3ncccc3F)ccc1Br)C(=O)N2 [Example 264, 6-(2-bromo-5-((3-fluoropyridin-2-yl)methoxy)phenyl)-2-methyl-2,4,6,7-tetrahydro-5H-pyrazolo[4,3-d]pyrimidin-5-one]	101
Cc1ccc(OCc2ncccc2Cl)cc1N1Cc2nn(C)cc2NC1=O [Example 265, 6-(5-((3-chloropyridin-2-yl)methoxy)-2-methylphenyl)-2-methyl-2,4,6,7-tetrahydro-5H-pyrazolo[4,3-d]pyrimidin-5-one]	82
CCCN(C)C(=O)c1ccc2c(c1)NC(=O)N(c1cc(OCc3ncccc3F)ccc1C)C2 [Example 266, 3-(5-((3-fluoropyridin-2-yl)methoxy)-2-methylphenyl)-N-methyl-2-oxo-N-propyl-1,2,3,4-tetrahydroquinazoline-7-carboxamide]	105

Compound	inhibitory rate (%)
O=C1Nc2ccccc2CN1c1cc(OCc2ncccn2)ccc1Br [Example 267, 3-(2-bromo-5-(pyrimidin-2-ylmethoxy)phenyl)-3,4-dihydroquinazolin-2(1H)-one]	100
Cc1ccc(OCc2ncccc2F)cc1N1Cc2cnccc2NC1=O [Example 268, 3-(5-((3-fluoropyridin-2-yl)methoxy)-2-methylphenyl)-3,4-dihydropyrido[4,3-d]pyrimidin-2(1H)-one]	83
Cc1ccc(OCc2ncccc2F)cc1N1Cc2c(Cl)cccc2N(C)C1=O [Example 269, 5-chloro-3-(5-((3-fluoropyridin-2-yl)methoxy)-2-methylphenyl)-1-methyl-3,4-dihydroquinazolin-2(1H)-one]	111
Cc1ccc(OCc2ncccc2F)cc1N1Cc2ccc(C(=O)NC(C)C)cc2NC1=O [Example 270, 3-(5-((3-fluoropyridin-2-yl)methoxy)-2-methylphenyl)-N-isopropyl-2-oxo-1,2,3,4-tetrahydroquinazoline-7-carboxamide]	104
Cc1ccc(OCc2ncccc2F)cc1N1Cc2ccc(C(=O)Nc3ccccn3)cc2NC1=O [Example 271, 3-(5-((3-fluoropyridin-2-yl)methoxy)-2-methylphenyl)-2-oxo-N-(pyridin-2-yl)-1,2,3,4-tetrahydroquinazoline-7-carboxamide]	100
Cc1ccc(OCc2ncccc2F)cc1N1Cc2ncccc2NC1=O [Example 272, 3-(5-((3-fluoropyridin-2-yl)methoxy)-2-methylphenyl)-3,4-dihydropyrido[3,2-d]pyrimidin-2(1H)-one]	95
Cc1ccc(OCc2ncccc2F)cc1N1Cc2ccc(C(=O)Nc3ccccc3)cc2NC1=O [Example 273, 3-(5-((3-fluoropyridin-2-yl)methoxy)-2-methylphenyl)-2-oxo-N-phenyl-1,2,3,4-tetrahydroquinazoline-7-carboxamide]	100
Cc1ccc(OCc2ncccn2)cc1N1Cc2c(Cl)cccc2NC1=O [Example 274, 5-chloro-3-(2-methyl-5-(pyrimidin-2-ylmethoxy)phenyl)-3,4-dihydroquinazolin-2(1H)-one]	106
Cc1ccc(OCc2ncccc2F)cc1N1Cc2ccc(C(F)(F)F)cc2NC1=O [Example 275, 3-(5-((3-fluoropyridin-2-yl)methoxy)-2-methylphenyl)-7-(trifluoromethyl)-3,4-dihydroquinazolin-2(1H)-one]	101
Cc1ccc(OCc2ncccc2F)cc1N1Cc2nn(CC3CC3)cc2NC1=O [Example 276, 2-(cyclopropylmethyl)-6-(5-((3-fluoropyridin-2-yl)methoxy)-2-methylphenyl)-2,4,6,7-tetrahydro-5H-pyrazolo[4,3-d]pyrimidin-5-one]	101
O=C1Nc2cccc(Cl)c2CN1c1cc(OCc2ncccc2F)ccc1Br [Example 277, 3-(2-bromo-5-((3-fluoropyridin-2-yl)methoxy)phenyl)-5-chloro-3,4-dihydroquinazolin-2(1H)-one]	99
N#Cc1ccc(OCc2ncccc2F)cc1N1Cc2c(Cl)cccc2NC1=O [Example 278, 2-(5-chloro-2-oxo-1,4-dihydroquinazolin-3(2H)-yl)-4-((3-fluoropyridin-2-yl)methoxy)benzonitrile]	96
Cc1ccc(OCc2ncccc2F)cc1N1Cc2c(ccnc2Cl)NC1=O [Example 279, 5-chloro-3-(5-((3-fluoropyridin-2-yl)methoxy)-2-methylphenyl)-3,4-dihydropyrido[4,3-d]pyrimidin-2(1H)-one]	103
O=C(CCc1ccc(OCc2ncccc2F)cc1N1Cc2ccccc2NC1=O)NC1CC1 [Example 280, N-cyclopropyl-3-(4-((3-fluoropyridin-2-yl)methoxy)-2-(2-oxo-1,4-dihydroquinazolin-3(2H)-yl)phenyl)propanamide]	62
Cc1ccc(OCc2ncccc2F)cc1N1Cc2c(F)cccc2NC1=O [Example 281, 5-fluoro-3-(5-((3-fluoropyridin-2-yl)methoxy)-2-methylphenyl)-3,4-dihydroquinazolin-2(1H)-one]	107
Cc1ccc(OCc2ncccc2F)cc1N1Cc2c(Br)cccc2NC1=O [Example 282, 5-bromo-3-(5-((3-fluoropyridin-2-yl)methoxy)-2-methylphenyl)-3,4-dihydroquinazolin-2(1H)-one]	98
COCCN1C(=O)N(c2cc(OCc3ncccc3F)ccc2C)Cc2c(Cl)cccc21 [Example 283, 5-chloro-3-(5-((3-fluoropyridin-2-yl)methoxy)-2-methylphenyl)-1-(2-methoxyethyl)-3,4-dihydroquinazolin-2(1H)-one]	100
